# Where two headings read alike, the source gives them in different places.
# Tests used:
# [1] = tested on: 4T1 breast tumor-bearing mice; type: in vivo, BALB/c mice
# Protocol: A suspension of 4T1 breast cancer cells was injected subcutaneously into the left shoulder back of 60 healthy female BALB/c mice to create solid tumor models. When the mean tumor volume reached approximately 190 mm^3, the mice were randomized into groups based on tumor volume, and were administered the respective drugs or drug solvents via oral gavage or intraperitoneal injection over 18 consecutive days. Longest and shortest diameters of tumors were measured every three days to calculate tumor volume, and mouse weights were recorded every three days. At the end of the experiment, tumors, spleens, and thymuses were harvested and weighed to calculate tumor, spleen, and thymus indices.
# Based on previous experimental results, Ganoderma lucidum polysaccharide GLP-1 was administered at a low dose of 50 mg/kg and a high dose of 150 mg/kg as shown in Table 27.
# (§1) Where TRTV is the relative tumor volume in the experimental group, and CRTV is the relative tumor volume in the model control group. Relative tumor volume (RTV)=Vt/V0, where Vt is the tumor volume on day t of dosing, and V0 is the tumor volume at the time of grouping.
# (§2) Where T represents the average tumor weight in the treatment group, and C represents the average tumor weight in the model control group.
# (§3) Spleen and thymus organ coefficients: After the last dose, spleen, thymus, and tumor weights are measured, and organ coefficients are calculated.
# (§4) Tumor index (%)=(tumor weight/body weight)×100%.
# (§5) Immune organ index (mg/g)=(organ mass/body weight)×1000.
# Statistical analyses were performed using SPSS 17.0, with the significance level set at P≤0.05. Measurement data were expressed as mean±standard deviation (˜±s). Normality and homogeneity of variance were tested using Leven's test. If data met normality and homogeneity of variance (P>0.05), one-way ANOVA and LSD test were used for statistical analysis. […] If the Kruskal-Wallis test was statistically significant (P<0.05), comparison analysis was performed using Dunnett's Test (a non-parametric method). Evaluation considered statistical differences and biological significance.
# [2] = tested on: LLC cells; assay: Cytotoxic effects of Ganoderma lucidum polysaccharide GLP-1 combined with cisplatin on LLC cells (MTT, absorbance at 570 nm); type: cell-based; conditions: 48 h, GLP-1 2 mg/mL
# Protocol: LLC lung cancer cells were seeded in a 96-well cell culture plate at 3,000 cells per well and incubated at 37° C. in a 5% CO2 incubator for 24 h. […] The cultures were then incubated for another 48 h before measuring the absorbance at 570 nm.
# [3] = tested on: LLC-bearing mice; conditions: cisplatin 4 mg/kg, Kanglaite 1404 mg/kg
# [4] = tested on: H22-bearing mice; type: in vivo
# Protocol: A homogenate suspension of H22 hepatoma solid tumors was injected subcutaneously under the axilla of 65 healthy male C57 mice to create a solid tumor model. Once all mouse tumors averaged a volume of about 230 mm3, mice were randomized into groups based on tumor volume and were administered the respective drugs or drug solvents via oral gavage or intraperitoneal injection for 25 consecutive days. Longest and shortest diameters of tumors were measured every three days to calculate tumor volume, and mouse weights were recorded every three days. At the end of the experiment, tumors, spleens, and thymuses were harvested and weighed to calculate tumor, spleen, and thymus indices.
# Based on previous experimental results, Ganoderma lucidum polysaccharide GLP-1 was administered at a low dose of 50 mg/kg and a high dose of 150 mg/kg as shown in Table 20.
# as §1, §2, §3, §4, §5
# Statistical analyses were performed using SPSS 17.0, with the significance level set at P≤0.05. Measurement data were expressed as mean±standard deviation (x±s). Normality and homogeneity of variance were tested using Leven's test. If data met normality and homogeneity of variance (P>0.05), one-way ANOVA and LSD test were used for statistical analysis. […] If the Kruskal-Wallis test was statistically significant (P<0.05), comparison analysis was performed using Dunnett's Test (a non-parametric method). Evaluation considered statistical differences and biological significance.
# [5] = blood, flow cytometry, GLP-1 low-dose 130 mg/kg
# [6] = cisplatin 3 mg/kg, GLP-1 low-dose 50 mg/kg
smiles,measurement,setting,value
"N.N.[Cl][Pt][Cl] [Cisplatin, cisplatin]",Number of deaths,"[1]; 4T1 breast tumor-bearing mice, 8 animals, cisplatin 4 mg/kg i.p.",1
same,Survival time,"[1]; 4T1 breast tumor-bearing mice, 18-day dosing, cisplatin 4 mg/kg i.p.",17.1 ± 2.3 days
same,Tumor volume,"[1]; 4T1 breast tumor-bearing mice, D0, cisplatin 4 mg/kg i.p.",190.5 ± 34.8 mm^3
same,Tumor growth inhibition rate vs. the model control group,"[1]; 4T1 breast tumor-bearing mice, end of experiment, cisplatin 4 mg/kg i.p.",71.6%
same,Tumor growth inhibition rate compared to the model control group,"[1]; by tumor weight, cisplatin 4 mg/kg, GLP-1 low-dose 50 mg/kg",71.6%
same,Inhibition rate,[2],35.2%
same,Tumor volume,"[3]; D1, GLP-1 low-dose 130 mg/kg",94.99 mm^3
same,Tumor volume,"[3]; D4, GLP-1 low-dose 130 mg/kg",150.58 mm^3
same,Tumor volume,"[3]; D7, GLP-1 low-dose 130 mg/kg",8.91 mm^3
same,Tumor volume,"[3]; D10, GLP-1 low-dose 130 mg/kg",6.51 mm^3
same,Tumor volume,"[3]; D13, GLP-1 low-dose 130 mg/kg",27.36 mm^3
same,Tumor volume,"[3]; D16, GLP-1 low-dose 130 mg/kg",36.09 mm^3
same,Tumor volume,"[3]; D19, GLP-1 low-dose 130 mg/kg",71.00 mm^3
same,Tumor volume,"[3]; D22, GLP-1 low-dose 130 mg/kg",824.01 mm^3
same,Tumor volume,"[3]; D25, GLP-1 low-dose 130 mg/kg",976.79 mm^3
same,Tumor histopathology,"[3]; H&E, x200","large areas of necrosis and hemorrhage were visible at the tumor center, with abundant tumor cells"
same,Tumor coefficient,"[3]; after last dose, GLP-1 low-dose 130 mg/kg",7.528 ± 2.567 %
same,CD3^+/CD4^+,[3]; [5],0.093 ± 0.025
same,CD3^+/CD8^+,[3]; [5],1.571 ± 0.406
same,Tumor growth inhibition rate,"[3]; by tumor weight vs model control, GLP-1 low-dose 130 mg/kg",61.6%
same,Blood WBC level compared to the model control group,[3]; GLP-1 low-dose 130 mg/kg,significantly decreased
same,Body weight compared to the model control group,[3]; GLP-1 low-dose 130 mg/kg,significantly decreased after administration from D7 to D25
same,Mortality rate,[3]; GLP-1 low-dose 130 mg/kg,0%
same,Number of deaths,[3]; GLP-1 low-dose 130 mg/kg,0
same,Number of surviving animals,[3]; GLP-1 low-dose 130 mg/kg,8
same,Survival time,"[4]; 25 days of dosing, cisplatin 3 mg/kg, GLP-1 low-dose 50 mg/kg",25 ± 0 days
same,Tumor growth inhibition rate vs. the model control group,"[4]; H22-bearing mice, end of experiment, cisplatin alone",84.2%
same,Tumor growth inhibition rate compared to the model control group,"[4]; by tumor weight, cisplatin 3 mg/kg, GLP-1 low-dose 50 mg/kg",84.2%
same,Mortality rate,[4]; [6],0%
same,Number of deaths,[4]; [6],0

# Reference: US20250144132A1, “POLYSACCHARIDE COMPOUND WITH A DEFINED MOLECULAR STRUCTURE THAT CAN ELIMINATE THE TOXIC SIDE EFFECTS OF CHEMOTHERAPY DRUGS” (priority 2023, published 2025)
